According to BigSolDB 2.1:

c1ccc2c(c1)Cc1ccccc1-2
solubility (mole fraction)
Conditions	278.15 K	283.15 K	288.15 K	293.15 K	298.15 K	303.15 K	308.15 K	313.15 K	318.15 K
in THF	0.12	0.13	0.148	0.163	0.182	0.2	0.225	0.248	0.273
in acetone	0.0353	0.0406	0.0482	0.0567	0.0658	0.0779	0.0931	0.109	0.126
in acetonitrile	0.0101	0.0113	0.0138	0.0161	0.0197	0.0235	0.0288	0.0345	0.0406
in ethanol	0.0038	0.00448	0.0055	0.00669	0.00816	0.00937	0.0111	0.0132	0.0154
in ethyl acetate	0.046	0.0542	0.062	0.0737	0.0866	0.102	0.119	0.139	0.163
in ethyl formate	0.0346	0.0395	0.046	0.0552	0.0654	0.0781	0.0933	0.112	0.133
in isobutyl acetate	0.0546	0.0611	0.0718	0.0816	0.0914	0.104	0.124	0.142	0.162
in isopropanol	0.00401	0.0045	0.00559	0.00675	0.00808	0.00943	0.0121	0.0149	0.0177
in isopropyl acetate	0.044	0.0504	0.058	0.0695	0.0812	0.0936	0.11	0.127	0.148
in methanol	0.00199	0.00235	0.00275	0.00313	0.00395	0.00452	0.00528	0.00645	0.00709
in methyl acetate	0.0374	0.0422	0.0498	0.0607	0.0712	0.0856	0.1	0.12	0.142
in n-butyl acetate	0.0693	0.0756	0.0874	0.0991	0.111	0.121	0.146	0.167	0.19
in n-propanol	0.0052	0.00612	0.0072	0.009	0.0112	0.013	0.0155	0.0186	0.0216
in n-propyl acetate	0.0596	0.0671	0.0763	0.0862	0.0969	0.108	0.134	0.153	0.176
